In patent US7638648B2, “Compounds having selective cytochrome P450RAI-1 or selective cytochrome P450RAI-2 inhibitory activity and methods of obtaining the same” (Allergan Inc., priority 2003, dated 2009):
One block for each compound: values may come before it.

Key:
P450RAI-1 = target: T1, P450RAI-1 (Homo sapiens, UniProt O43174); assay: P450RAI-1 cell-based inhibitor assay (inhibition of all-trans-RA metabolism); details: P450RAI-1 stably transfected HeLa cells, [3H]-RA, 3 hours at 37° C.; read-out: P450RAI-1 Whole cell IC50
T1 construct: expressed in transfected cells; host or cells: HeLa
T1 sequence (O43174 1-497): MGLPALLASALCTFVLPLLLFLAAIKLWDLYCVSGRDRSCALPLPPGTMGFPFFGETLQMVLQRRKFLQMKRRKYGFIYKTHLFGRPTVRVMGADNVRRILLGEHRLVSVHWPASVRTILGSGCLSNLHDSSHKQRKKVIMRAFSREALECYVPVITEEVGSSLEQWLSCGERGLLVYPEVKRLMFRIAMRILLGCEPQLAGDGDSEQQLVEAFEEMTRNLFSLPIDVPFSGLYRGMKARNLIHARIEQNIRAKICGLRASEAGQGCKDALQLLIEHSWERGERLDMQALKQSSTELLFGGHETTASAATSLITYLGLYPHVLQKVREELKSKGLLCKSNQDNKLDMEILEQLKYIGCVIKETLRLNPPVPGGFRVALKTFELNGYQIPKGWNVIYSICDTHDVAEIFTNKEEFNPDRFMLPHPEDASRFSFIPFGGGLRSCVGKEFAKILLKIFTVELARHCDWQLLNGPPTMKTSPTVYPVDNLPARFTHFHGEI
Experimental: (§1) P450RAI-1 and P450RAI-2 Cell-Based Inhibitor Assay:
(§2) P450RAI-1 stably transfected HeLa cells, or P450RAI-2 stably transfected HeLa cells, as applicable, are maintained in […] tissue culture dishes in Modified Eagle's Medium (MEM) containing 10% Fetal Bovine Serum (FBS) and 100 μg/ml hygromycin. Exponentially growing cells are harvested by incubating in trypsin. Cells are then washed with 1× Phosphate Buffered Saline (PBS) and plated in a 48-well plate at 5×10^5 cells in 0.2 ml MEM medium containing 10% FBS and 0.05 μCi [^3H]—RA in the presence or absence of increasing concentrations of the test compounds. The compounds are diluted in 100% DMSO and then added in triplicate wells at either 10, 1 or 0.1 μM final concentration. As a positive control for RA metabolism inhibition, cells are also incubated with ketoconazole at 100, 10 and 1 μM. Cells are incubated for 3 hours at 37° C. The retinoids are then extracted using the procedure of Bligh et al. (1959) Canadian Journal of Biochemistry 37, 911-917, modified by using methylenechloride instead of chloroform. The publication Bligh et al. (1959) Canadian Journal of Biochemistry 37, 911-917 is specifically incorporated herein by reference. The water soluble radioactivity is quantified using a β-scintillation counter. […]

RAR γ [1] = target: T2, RAR γ (Homo sapiens, UniProt P13631); assay: RARγ EC50/efficacy (Table 1); assay type: cell-based; details: value in parentheses
T2 sequence (P13631 1-454): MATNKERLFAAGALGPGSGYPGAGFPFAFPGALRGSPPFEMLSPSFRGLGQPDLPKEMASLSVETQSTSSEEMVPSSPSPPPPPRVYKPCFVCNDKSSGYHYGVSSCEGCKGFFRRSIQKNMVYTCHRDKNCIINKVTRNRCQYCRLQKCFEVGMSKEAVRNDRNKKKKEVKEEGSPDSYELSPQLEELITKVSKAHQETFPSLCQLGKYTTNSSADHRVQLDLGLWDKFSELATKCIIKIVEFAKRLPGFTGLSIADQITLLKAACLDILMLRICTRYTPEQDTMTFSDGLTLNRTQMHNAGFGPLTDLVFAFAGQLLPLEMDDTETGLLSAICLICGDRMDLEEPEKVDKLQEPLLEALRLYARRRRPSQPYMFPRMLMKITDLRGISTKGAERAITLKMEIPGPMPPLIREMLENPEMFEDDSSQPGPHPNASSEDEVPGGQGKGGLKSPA

RAR α = target: T3, RAR α (Homo sapiens, UniProt P10276); assay: RARα binding Kd (Table 1); details: last item of cell
T3 sequence (P10276 1-462): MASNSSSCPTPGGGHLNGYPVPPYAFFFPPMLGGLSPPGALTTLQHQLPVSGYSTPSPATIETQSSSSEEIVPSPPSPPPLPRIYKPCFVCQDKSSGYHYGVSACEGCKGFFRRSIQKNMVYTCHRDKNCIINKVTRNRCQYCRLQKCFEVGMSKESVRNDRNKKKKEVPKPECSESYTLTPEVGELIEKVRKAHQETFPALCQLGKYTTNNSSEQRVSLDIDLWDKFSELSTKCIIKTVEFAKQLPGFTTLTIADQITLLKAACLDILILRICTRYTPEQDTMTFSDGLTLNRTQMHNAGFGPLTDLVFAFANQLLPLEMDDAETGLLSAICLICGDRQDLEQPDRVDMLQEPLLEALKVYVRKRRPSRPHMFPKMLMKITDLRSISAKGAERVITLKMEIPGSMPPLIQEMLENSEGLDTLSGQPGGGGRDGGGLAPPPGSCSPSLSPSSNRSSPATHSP

RAR β = target: T4, RAR β (Homo sapiens, UniProt P10826); assay: RARβ binding Kd (Table 1); details: last item of cell
T4 sequence (P10826 1-455): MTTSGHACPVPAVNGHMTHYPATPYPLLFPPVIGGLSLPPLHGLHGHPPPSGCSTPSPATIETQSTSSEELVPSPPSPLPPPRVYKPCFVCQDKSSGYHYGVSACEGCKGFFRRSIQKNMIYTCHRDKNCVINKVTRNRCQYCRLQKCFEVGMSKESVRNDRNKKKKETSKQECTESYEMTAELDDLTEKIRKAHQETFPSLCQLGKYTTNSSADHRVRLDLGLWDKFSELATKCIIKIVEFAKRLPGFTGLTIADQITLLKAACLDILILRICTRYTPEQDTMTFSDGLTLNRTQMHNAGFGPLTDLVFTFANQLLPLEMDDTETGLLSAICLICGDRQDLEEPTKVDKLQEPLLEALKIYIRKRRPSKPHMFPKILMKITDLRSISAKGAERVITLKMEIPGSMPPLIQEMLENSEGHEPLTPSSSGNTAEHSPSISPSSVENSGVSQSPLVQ

RAR γ [2] = target: T2, RAR γ; assay: RARγ binding Kd (Table 1); details: last item of cell
P450RAI-2 = target: T5, P450RAI-2 (Homo sapiens, UniProt Q9NR63); assay: P450RAI-2 cell-based inhibitor assay (inhibition of all-trans-RA metabolism); details: P450RAI-2 stably transfected HeLa cells, [3H]-RA, 3 hours at 37° C.; read-out: P450RAI-2 Whole cell IC50
T5 construct: expressed in transfected cells; host or cells: HeLa
T5 sequence (Q9NR63 1-512): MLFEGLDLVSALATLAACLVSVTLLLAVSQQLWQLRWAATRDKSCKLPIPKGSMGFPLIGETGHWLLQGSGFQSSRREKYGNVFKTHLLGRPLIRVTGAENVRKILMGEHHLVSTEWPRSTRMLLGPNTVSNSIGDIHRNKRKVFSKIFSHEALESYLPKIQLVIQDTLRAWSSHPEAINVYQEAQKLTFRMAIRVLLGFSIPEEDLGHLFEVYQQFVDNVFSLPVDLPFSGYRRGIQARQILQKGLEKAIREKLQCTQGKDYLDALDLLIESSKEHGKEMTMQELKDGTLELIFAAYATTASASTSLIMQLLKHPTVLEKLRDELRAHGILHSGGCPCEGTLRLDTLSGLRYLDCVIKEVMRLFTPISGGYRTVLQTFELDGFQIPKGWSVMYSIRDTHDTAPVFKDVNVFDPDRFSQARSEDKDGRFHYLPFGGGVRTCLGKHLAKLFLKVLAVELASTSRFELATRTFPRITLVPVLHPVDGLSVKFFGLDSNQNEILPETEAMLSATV
Experimental: as §1, §2

IC50 (P450RAI-1): 1.3 µM
SMILES: CC(C)c1cc(C(=O)Oc2ccc(/C=C/C(=O)O)cc2)cc2c1OC(C)(C)CC2(C)C [Compound 16, 8-Isopropyl-2,2,4,4-tetramethyl-chroman-6-carboxylic acid 4-(2-carboxy-vinyl)-phenyl ester]

RAR γ (EFFICACY) (RAR γ [1]): 68
SMILES: C=Cc1c(C)c(C#Cc2ccc(CC(=O)O)cc2)cc(C(C)(C)C)c1OC(C)C [Compound 46, [4-(5-tert-Butyl-4-isopropoxy-2-methyl-3-vinyl-phenylethynyl)-phenyl]-acetic acid]

Kd (RAR α): > 10 µM
Kd (RAR β): > 10 µM
Kd (RAR γ [2]): > 10 µM
SMILES: CN(C1CC1)C1CCC(C)(C)c2cc(C#Cc3ccc(/C=C/C(=O)O)cc3)cc(C3CC3)c21 (stereo not drawn) [Compound 48, 3-{4-[4-Cyclopropyl-5-(cyclopropyl-methyl-amino)-8,8-dimethyl-5,6,7,8-tetrahydro-naphthalen-2-ylethynyl]-phenyl}-acrylic acid]

IC50 (P450RAI-2): > 10 µM
SMILES: CC(C(=O)O)c1ccc(C#Cc2cc(C3CC3)c3c(c2)C(C)(C)CCC3N(C)C2CC2)cc1 (stereo not drawn) [Compound 49, 2-{4-[4-Cyclopropyl-5-(cyclopropyl-methyl-amino)-8,8-dimethyl-5,6,7,8-tetrahydro-naphthalen-2-ylethynyl]-phenyl}-propionic acid]
